In ChEMBL document CHEMBL5608163, “Structure modification of anoplin for fighting resistant bacteria” (Eur J Med Chem, 2024) one finds MIC and HC10 data, which are given here for 20 compounds.

Converted amounts (≈) assume the structure as drawn. Numbered stars: 1 amine (or outer) side, 2 acyl side, 3 side chain; on linkers, the order of the positions; unused ones are H or OH. Square brackets hold non-standard residues; d marks the D form. Peptide text beside a SMILES is read from it. Gly(N(CH2)2(3-indolyl)) = O=C(O)CNCCc1c[nH]c2ccccc12; N(1-naphthylmethyl)Gly = O=C(O)CNCc1cccc2ccccc12; X3 = O=C(CN(CC(c1ccccc1)c1ccccc1)[*:1])[*:2]; NCyclohexylmethylGly = O=C(O)CNCC1CCCCC1; X2 = CCC(C)N(CC(=O)[*:2])[*:1]; N(iPr)Gly = CC(C)NCC(=O)O; Nphe = O=C(O)CNCc1ccccc1; NBuGly = CCCCNCC(=O)O; Nleu = CC(C)CNCC(=O)O; βAla = NCCC(=O)O

In general, MIC refers to the least concentration at which growth counts as inhibited.

The test system of data set [1] is Staphylococcus aureus. In words: Antibacterial activity against Staphylococcus aureus ATCC 25923 assessed as reduction in bacterial growth measured after 24 hrs by Mueller-Hinton broth based two-fold serial dilution method. The class given is functional.
Data set [2] concerns Escherichia coli. In words: Antibacterial activity against Escherichia coli ATCC 25922 assessed as reduction in bacterial growth measured after 24 hrs by Mueller-Hinton broth based two-fold serial dilution method. The class given is functional.
The subject of data set [3] is Staphylococcus aureus. Kind of data set: Antibacterial activity against Staphylococcus aureus ATCC 25923 assessed as reduction in bacterial cell growth incubated for 18 hrs by two fold serial microdilution method. The class given is functional. A general note: Dilution methods test growth across graded concentrations, often in twofold steps.
Data set [4] concerns Staphylococcus epidermidis. Kind of data set: Antibacterial activity against Staphylococcus epidermidis ATCC 12228 assessed as reduction in bacterial cell growth incubated for 18 hrs by two fold serial microdilution method. The class given is functional.
In data set [5] the test system is Escherichia coli. Kind of data set: Antibacterial activity against Escherichia coli ATCC 25922 assessed as reduction in bacterial cell growth incubated for 18 hrs by two fold serial microdilution method. The class given is functional.
Data set [6] has as its system Pseudomonas aeruginosa. Kind of data set: Antibacterial activity against Pseudomonas aeruginosa ATCC 27853 assessed as reduction in bacterial cell growth incubated for 18 hrs by two fold serial microdilution method. The class given is functional.
Data set [7] relates to Klebsiella pneumoniae. Kind of data set: Antibacterial activity against Klebsiella pneumoniae ATCC 700603 assessed as reduction in bacterial cell growth incubated for 18 hrs by two fold serial microdilution method. The class given is functional.
Data set [8] has as its system Acinetobacter baumannii. In words: Antibacterial activity against Acinetobacter baumannii ATCC 19606 assessed as inhibition in bacterial growth incubated for 20 to 24 hrs by CLSI based broth microdilution method. The class given is functional. The following applies: time 20-24 hrs.
The test system of data set [9] is Erythrocyte. In words: Hemolytic activity in mouse Red blood cells incubated for 1 hr. The class given is toxicity, cell-based.
Data set [10] deals with Staphylococcus aureus. Kind of data set: Antimicrobial activity against Staphylococcus aureus assessed as reduction in microbial growth by broth microdilution method. The class given is functional.
In data set [11] the test system is Escherichia coli. In words: Antimicrobial activity against Escherichia coli assessed as reduction in microbial growth by broth micro-dilution method. The class given is functional.
Data set [12] relates to Erythrocyte. In words: Hemolytic activity in mouse RBC. The class given is toxicity, cell-based.

With `CC(C)C[C@H](NC(=O)CN)C(=O)N[C@@H](CC(C)C)C(=O)N[C@@H](CCCCN)C(=O)N[C@@H](CCCNC(=N)N)C(N)=O` (H-GLLKR-NH2), the minimum inhibitory concentration (MIC) in data set [1] is > 53.2 µM; in data set [2], 53.2 µM (≈ 31.1 µg/mL).
The corresponding values for `CC[C@H](C)[C@H](NC(=O)[C@H](CCCNC(=N)N)NC(=O)[C@H](CCCCN)NC(=O)[C@H](CC(C)C)NC(=O)[C@H](CC(C)C)NC(=O)CN)C(N)=O` (H-GLLKRI-NH2) are > 54.6 µM and 54.6 µM (≈ 38.1 µg/mL).
On the same counts, the results for `CC[C@H](C)[C@H](NC(=O)[C@H](CCCNC(=N)N)NC(=O)[C@H](CCCCN)NC(=O)[C@H](CC(C)C)NC(=O)[C@H](CC(C)C)NC(=O)CN)C(=O)N[C@@H](CCCCN)C(N)=O` (H-GLLKRIK-NH2) are > 33.9 µM and 33.9 µM (≈ 28 µg/mL).
The corresponding values for `CC[C@H](C)[C@H](NC(=O)[C@H](CCCNC(=N)N)NC(=O)[C@H](CCCCN)NC(=O)[C@H](CC(C)C)NC(=O)[C@H](CC(C)C)NC(=O)CN)C(=O)N[C@@H](CCCCN)C(=O)N[C@H](C(N)=O)[C@@H](C)O` (H-GLLKRIKT-NH2) are > 24.8 µM and 24.8 µM (≈ 23 µg/mL).
Regarding `CC[C@H](C)[C@H](NC(=O)[C@H](CCCNC(=N)N)NC(=O)[C@H](CCCCN)NC(=O)[C@H](CC(C)C)NC(=O)[C@H](CC(C)C)NC(=O)CN)C(=O)N[C@@H](CCCCN)C(=O)N[C@H](C(=O)N[C@@H](CC(C)C)C(=O)N[C@@H](CC(C)C)C(=O)O)[C@@H](C)O` (H-GLLKRIKTLL-OH), the MIC in data set [1] is > 41.4 µM; in data set [2], 41.4 µM (≈ 47.8 µg/mL).
In the case of `CC[C@H](C)[C@H](NC(=O)[C@H](CCCNC(=N)N)NC(=O)[C@H](CCCCN)NC(=O)CCNC(=O)[C@H](CC(C)C)NC(=O)CN)C(=O)N[C@@H](CCCCN)C(=O)N[C@H](C(=O)N[C@@H](CC(C)C)C(=O)N[C@@H](CC(C)C)C(N)=O)[C@@H](C)O` (H-GL[βAla]KRIKTLL-NH2), the MIC in data set [3] was > 128 µM; in [4], > 128 µM; in data set [5] it was > 128 µM; in data set [6] it was 32 µM (≈ 35.6 µg/mL); in data set [7], > 128 µM; in data set [8], > 128 µM. Further, the HC10 in [9] is > 256 µM.
`CC[C@H](C)[C@H](NC(=O)[C@H](CCCNC(=N)N)NC(=O)[C@@H](N)CCCCN)C(=O)N[C@@H](CCCCN)C(=O)N[C@H](C(=O)N[C@@H](CC(C)C)C(=O)N[C@@H](CC(C)C)C(N)=O)[C@@H](C)O` (H-KRIKTLL-NH2): the MIC in data set [1] is > 70.2 µM; in [2], 70.2 µM (≈ 61.1 µg/mL).
The corresponding values for `CC[C@H](C)[C@H](NC(=O)[C@H](CCCNC(=N)N)NC(=O)[C@H](CCCCN)NC(=O)[C@@H](N)CC(C)C)C(=O)N[C@@H](CCCCN)C(=O)N[C@H](C(=O)N[C@@H](CC(C)C)C(=O)N[C@@H](CC(C)C)C(N)=O)[C@@H](C)O` (H-LKRIKTLL-NH2) are > 31.6 µM and 31.6 µM (≈ 31 µg/mL).
For the compound `CC[C@H](C)[C@H](NC(=O)[C@H](CCCNC(=N)N)NC(=O)[C@H](CCCCN)NC(=O)[C@H](CC(C)C)NC(=O)[C@@H](N)CC(C)C)C(=O)N[C@@H](CCCCN)C(=O)N[C@H](C(=O)N[C@@H](CC(C)C)C(=O)N[C@@H](CC(C)C)C(N)=O)[C@@H](C)O` (H-LLKRIKTLL-NH2), the MIC in data set [1] was > 54.7 µM; in data set [2] it was 54.7 µM (≈ 60 µg/mL).
`CC[C@H](C)[C@H](NC(=O)[C@H](CCCNC(=N)N)NC(=O)[C@H](CCCCN)NC(=O)[C@H](CC(C)C)NC(=O)[C@H](CC(C)C)NC(=O)CNCCc1c[nH]c2ccccc12)C(=O)N[C@@H](CCCCN)C(=O)N[C@H](C(=O)N[C@@H](CC(C)C)C(=O)N[C@@H](CC(C)C)C(N)=O)[C@@H](C)O` (H-[Gly(N(CH2)2(3-indolyl))]LLKRIKTLL-NH2): the MIC in data set [10] is 50 µM; in [11], 25 µM. Further, the HC10 in data set [12] was > 50 µM.
The corresponding values for `CC[C@H](C)[C@H](NC(=O)[C@H](CCCNC(=N)N)NC(=O)[C@H](CCCCN)NC(=O)[C@H](CC(C)C)NC(=O)[C@H](CC(C)C)NC(=O)CNCc1cccc2ccccc12)C(=O)N[C@@H](CCCCN)C(=O)N[C@H](C(=O)N[C@@H](CC(C)C)C(=O)N[C@@H](CC(C)C)C(N)=O)[C@@H](C)O` (H-[N(1-naphthylmethyl)Gly]LLKRIKTLL-NH2) are 25 µM, 12.5 µM and > 50 µM.
As to `CC[C@H](C)[C@H](NC(=O)[C@H](CCCNC(=N)N)NC(=O)[C@H](CCCCN)NC(=O)[C@H](CC(C)C)NC(=O)[C@H](CC(C)C)NC(=O)CNC(C)C)C(=O)N[C@@H](CCCCN)C(=O)N[C@H](C(=O)N[C@@H](CC(C)C)C(=O)N[C@@H](CC(C)C)C(N)=O)[C@@H](C)O` (H-[N(iPr)Gly]LLKRIKTLL-NH2), the minimal inhibitory concentration (MIC) in data set [10] and in data set [11] was > 100 µM each time. Besides, the HC10 in data set [12] was > 50 µM.
With `CCCCNCC(=O)N[C@@H](CC(C)C)C(=O)N[C@@H](CC(C)C)C(=O)N[C@@H](CCCCN)C(=O)N[C@@H](CCCNC(=N)N)C(=O)N[C@H](C(=O)N[C@@H](CCCCN)C(=O)N[C@H](C(=O)N[C@@H](CC(C)C)C(=O)N[C@@H](CC(C)C)C(N)=O)[C@@H](C)O)[C@@H](C)CC` (H-[NBuGly]LLKRIKTLL-NH2), the values for the MIC in data set [10] and in data set [11] were > 100 µM and 100 µM, respectively. In [12], the HC10 is > 50 µM.
As to `CC[C@H](C)[C@H](NC(=O)[C@H](CCCNC(=N)N)NC(=O)[C@H](CCCCN)NC(=O)[C@H](CC(C)C)NC(=O)[C@H](CC(C)C)NC(=O)CNCC1CCCCC1)C(=O)N[C@@H](CCCCN)C(=O)N[C@H](C(=O)N[C@@H](CC(C)C)C(=O)N[C@@H](CC(C)C)C(N)=O)[C@@H](C)O` (H-[NCyclohexylmethylGly]LLKRIKTLL-NH2), the figures for the minimum inhibitory concentration (MIC) in data set [10] and in data set [11] were 50 µM and 25 µM, respectively. Further, the HC10 in data set [12] is > 50 µM.
The corresponding values for `CC[C@H](C)[C@H](NC(=O)[C@H](CCCNC(=N)N)NC(=O)[C@H](CCCCN)NC(=O)[C@H](CC(C)C)NC(=O)[C@H](CC(C)C)NC(=O)CNCC(C)C)C(=O)N[C@@H](CCCCN)C(=O)N[C@H](C(=O)N[C@@H](CC(C)C)C(=O)N[C@@H](CC(C)C)C(N)=O)[C@@H](C)O` (H-[Nleu]LLKRIKTLL-NH2) are > 100 µM, > 100 µM and > 50 µM.
The corresponding values for `CC[C@H](C)[C@H](NC(=O)[C@H](CCCNC(=N)N)NC(=O)[C@H](CCCCN)NC(=O)[C@H](CC(C)C)NC(=O)[C@H](CC(C)C)NC(=O)CNCc1ccccc1)C(=O)N[C@@H](CCCCN)C(=O)N[C@H](C(=O)N[C@@H](CC(C)C)C(=O)N[C@@H](CC(C)C)C(N)=O)[C@@H](C)O` (H-[Nphe]LLKRIKTLL-NH2) are > 100 µM, 50 µM and > 50 µM.
For `CCC(C)NCC(=O)N[C@@H](CC(C)C)C(=O)N[C@@H](CC(C)C)C(=O)N[C@@H](CCCCN)C(=O)N[C@@H](CCCNC(=N)N)C(=O)N[C@H](C(=O)N[C@@H](CCCCN)C(=O)N[C@H](C(=O)N[C@@H](CC(C)C)C(=O)N[C@@H](CC(C)C)C(N)=O)[C@@H](C)O)[C@@H](C)CC` (some centres undefined) (H-[X2]LLKRIKTLL-NH2), the MIC in data set [10] and in data set [11] was > 100 µM throughout. In addition, in [12], the HC10 was > 50 µM.
`CC[C@H](C)[C@H](NC(=O)[C@H](CCCNC(=N)N)NC(=O)[C@H](CCCCN)NC(=O)[C@H](CC(C)C)NC(=O)[C@H](CC(C)C)NC(=O)CNCC(c1ccccc1)c1ccccc1)C(=O)N[C@@H](CCCCN)C(=O)N[C@H](C(=O)N[C@@H](CC(C)C)C(=O)N[C@@H](CC(C)C)C(N)=O)[C@@H](C)O` (H-[X3]LLKRIKTLL-NH2): the minimal inhibitory concentration (MIC) in data set [10] was 25 µM; in data set [11], 12.5 µM. In addition, the HC10 in [12] is > 50 µM.
Turning to `CC[C@H](C)[C@H](NC(=O)[C@H](CCCNC(=N)N)NC(=O)[C@H](CCCCN)NC(=O)[C@H](CC(C)C)NC(=O)[C@H](CC(C)C)NC(=O)CCN)C(=O)N[C@@H](CCCCN)C(=O)N[C@H](C(=O)N[C@@H](CC(C)C)C(=O)N[C@@H](CC(C)C)C(N)=O)[C@@H](C)O` (H-[βAla]LLKRIKTLL-NH2), the MIC was found to be 128 µM (≈ 149 µg/mL) in data set [3]; 8 µM (≈ 9.34 µg/mL) in data set [4]; 32 µM (≈ 37.4 µg/mL) in data set [5]; 8 µM (≈ 9.34 µg/mL) in data set [6]; 128 µM (≈ 149 µg/mL) in data set [7]; 128 µM (≈ 149 µg/mL) in data set [8]. Further, the HC10 in [9] is > 256 µM.
Take `CC[C@H](C)[C@H](NC(=O)[C@H](CCCNC(=N)N)NC(=O)[C@H](CCCCN)NC(=O)[C@H](CC(C)C)NC(=O)[C@H](CC(C)C)NC(=O)CCN)C(=O)N[C@@H](CCCCN)C(=O)NCCC(=O)N[C@@H](CC(C)C)C(=O)N[C@@H](CC(C)C)C(N)=O` (H-[βAla]LLKRIK[βAla]LL-NH2): the MIC was 128 µM (≈ 146 µg/mL) in data set [3]; 64 µM (≈ 72.8 µg/mL) in data set [4]; 64 µM (≈ 72.8 µg/mL) in data set [5]; 64 µM (≈ 72.8 µg/mL) in data set [6]; 64 µM (≈ 72.8 µg/mL) in [7]; > 128 µM in [8]. In data set [9], the HC10 is > 256 µM.
